In patent US7049331B2, “1,2,4-thiadiazole derivatives as melanocortin receptor modulators” (Ortho-McNeil Pharmaceutical, Inc., priority 2001, dated 2006):
Like-named read-outs stand apart in the source and are kept apart here.

How the values were obtained:
Food-Deprived Rats = assay: Rodent Feeding: Food Intake in Food-Deprived Rats (MC-4); format: in vivo, rat; settings: for change in vivo at 10 mg/kg / change in vivo at 30 mg/kg: Rattus norvegicus; for change in vivo at 30 mg/kg: po
Text: Rodent Feeding: Food Intake in Food-Deprived Rats (MC-4)
Male Long-Evans rats (180–200 grams) were housed individually and maintained on a once-a-day feeding schedule (i.e.10 a.m. until 4 p.m.) for five days following quarantine to allow the animals to acclimate to feeding on powdered chow (#5002 PMI Certified Rodent Meal) during the allotted time. The chow was made available in an open jar, anchored in the cage by a wire, with a metal follower covering the food to minimize spillage. Water was available ad-libitum.
Animals were fasted for 18 hours prior to testing. At the end of the fasting period, animals were administered either a test compound or vehicle. Vehicle and test compound were administered either orally (5 mL/kg) 60 minutes prior to the experiment, subcutaneously (1 mL/kg) 30 minutes prior to the experiment, or intraperitoneally (1 mL/kg) 30 minutes prior to the experiment. Test compounds were administered orally as a suspension in aqueous 0.5% methylcellulose-0.4% Tween 80, or intraperitoneally as a solution or suspension in PEG 200; compound concentrations typically ranged from 1 mg/kg to 100 mg/kg, preferably from 10–30 mg/kg. Food intake was measured at 2, 4, and 6 hours after administration by weighing the special jar containing the food before the experiment and at the specified times. Upon completion of the experiment, all animals were given a one-week washout period before re-testing.
Following the procedure described above, select compounds of the present invention were tested to measure the effect on food intake in fasted rats, as listed in Table 5 and 6.

Hippocampal Cells = assay: Neurite Cell Outgrowth Assay, hippocampal cells; format: cell-based; settings: Rattus norvegicus; 50 nM; percent change over the vehicle response; NA = no change/not active
Text: (§1) Dissociated hippocampal and cortical cell cultures were established from embryonic day 18 rat fetuses as described by Mattson, M. P., Barger, S. W., Begley, J, and Mark, R. J., Methods Cell Biol., 1994, 46:[…]. Briefly, fetuses were removed via cesarean section from pregnant moms (Sprague-Dawley) and anesthetized with halothane according to the AVMA Panel on Euthanasia. Pups were decapitated and the brains were removed and placed in HEPES-buffered Hank's Balanced Salt solution (HBSS; Gibco). The hippocampi and cortices were dissected out and pooled according to tissue-type. Tissue was trypsinized for 15 min (1 mg/ml trypsin-HBSS; Worthington), rinsed with fresh HBSS, incubated in trypsin inhibitor (1 mg/ml; Sigma) for 5 min, rinsed again with fresh HBSS and then triturated in 1 ml fresh HBSS with a fire-polished glass pipette. Dissociated cells were seeded at 30,000 cells/well onto poly-D-lysine coated 96-well plates (Collaborative BioScience). Each well contained 100 μl of Eagle's Minimal Essential Media (MEM; Gibco) supplemented with 26 mM NaHCO3 (Sigma), 56 mM glucose (Sigma), 15 mM KCl (Sigma), 1 mM sodium pyruvate (Sigma), 1.1 mM L-glutamine (Sigma), 10% (v/v) heat-inactivated fetal bovine serum (Hyclone), and 0.001% gentamicin sulfate (Sigma) (pH 7.4). Cells were allowed to attach for 24 h in a humidified 37° C. 5% CO2 incubator before experimental treatment. The culture media was aspirated and exchanged with fresh media every 3 days.
(§2) Twenty-four hours after plating, cultures were treated with vehicle (PBS+0.1% BSA), alpha-melanocyte stimulating hormone (α-MSH) or test compound (diluted in DPBS). Each treatment condition was run in quadruplicate. On the third day in culture, the media was aspirated off and replaced with fresh media and test compound. At one week in culture, the cells were fixed with 10% phosphate-buffered formalin for 15 min, then rinsed with DPBS (Sigma) and placed in blocking serum for 30 min (horse serum; 1:50 dilution in DPBS; Vector Labs). The cultures were rinsed again with DPBS and then incubated in primary antibody for 2 hr (microtubule-associated protein-2 (MAP-2) is a selective marker for dendritic processes; anti-mouse monoclonal (Chemicon); 1:1000 dilution of MAP-2 in antibody diluent (Zymed)). Negative control wells were incubated in antibody diluent alone. Background signal was determined by blank wells (cell-free) incubated with or without antibody. Cultures were rinsed again with DPBS and then placed in fluorescein for 1 hr (FITC; anti-mouse IgG; rat adsorbed; 1:50 dilution in DPBS; Vector Labs). Cultures were rinsed a final time with DPBS and the plates were then read on a Cytofluor 4000 fluorescence plate reader. Neurite outgrowth was expressed as percent change from control (vehicle).
(§3) The data are expressed as percent change over the vehicle response. All compounds were screened at 50 nM. The abbreviation NA indicates no change/not active; the abbreviation ND indicates a compound not tested/response not determined.

[1] = target: T1, melanocortin MC-4 receptor (Homo sapiens, UniProt P32245); assay: Melanocortin MC-4 Receptor Binding Assay (SPA)
T1 construct: purchased Receptor Biology Inc
Procedure: Melanocortin MC-4 Receptor Binding Assay Melanocortin [MC-4]-membrane [purchased from Receptor Biology Inc] was coupled to wheat germ agglutinin coated polyvinyl toluene-Scintillation Proximity Assay beads [purchased from Amersham Pharmacia Inc.] for 30 min at 25° C. Into each well of a 96-well Opti plate [purchased from Packard, Calif.], 2.5 μg of membrane and 0.25 mg of beads were mixed in a volume of 100 μL media. […] Test compounds (1.5 μL) at 1 mM in 30% DMSO-50 mM HEPES, pH 7.4 buffer was added to separate wells on the plate. Radioactive ligand ^125I-NDP-melanocyte stimulating hormone [NEN, 2000Ci/mmol] was added to each well (48.5 μL per well, 40 pM final concentration). The plate was then sealed and let stand for 16 hr at 25° C. NDP-Melanocyte stimulating hormone peptide and α-melanocyte stimulating hormone peptide [purchased from Palomar Research Inc, 1 μM] were used as reference inhibitor compounds to define non-specific binding (N). Total binding (T) was defined using 30% DMSO-50 mM HEPES, pH 7.4 buffer. Bound radioactivity for each well (Y), measured at counts per minute (cpm) was measured in a TopCount [Packard, Calif.]. Percent inhibition was calculated as: […] The procedures described above for the melanocortin MC-4 receptor were repeated for the melanocortin MC-3 receptor. Following the procedures described, representative compounds of the present invention were tested for binding in the MC-4 and/or MC-3 assay, as listed in Table 4.

[2] = target: T1, melanocortin MC-4 receptor; assay: MC-4 receptor binding (Filtration); settings: Filtration; read-out: IC50 MC-4 (μM) (Filtration)
Procedure: The procedures described above for the melanocortin MC-4 receptor were repeated for the melanocortin MC-3 receptor. Following the procedures described, representative compounds of the present invention were tested for binding in the MC-4 and/or MC-3 assay, as listed in Table 4.

Cortical Cells = assay: Neurite Cell Outgrowth Assay, cortical cells; format: cell-based; settings: Rattus norvegicus; 50 nM; percent change over the vehicle response; NA = no change/not active
Text: as §1, §2, §3

human sebocytes = assay: Visual observation of lipid granule formation in sebocytes; format: cell-based
Procedure: Semiconfluent cultures of 3T3 mouse fibroblasts (Swiss Albino mouse, ATCC CCL-92) were treated with mitomycin C (4 μg/ml) for 3 hours, trypsinized and seeded at a density of 2.5×10^5/9.5 cm^2 tissue culture plate in Dulbeccos Minimal Essential Medium (DMEM) containing 10% Colorado Calf Serum, PNC (100U/ml), STM (100 μg/ml), L glutamine (0.3 mg/ml), sodium pyruvate (1 mM) and nonessential amino acids (100 μM). The cells were incubated at 37° C. for 24 hours prior to their use as a feeder layer for sebocytes.
Human sebocytes were isolated from Dermatome shavings of postoperative pieces of human skin at 0.4–0.8 mm depths (this part of the skin was previously shown to be enriched in sebaceous glands). Shavings so obtained were treated with 1% Dispase in Iscoves medium containing 10% serum for 20 min at 37° C. The tissue was then placed in 0.3% trypsin/1% EDTA in Phosphate Buffered Saline (PBS) for 10 minutes at 37° C. Following this incubation the cells were gently scraped from the tissue in Growth medium (GM) containing DMEM/F12 media mixture (3:1), supplemented with 8% heat inactivated FBS, 2% heat inactivated human serum (HS), 1 mM sodium pyruvate, epidermal growth factor (10 ng/ml), insulin (10 μg/ml), hydrocortisone (0.4 μg/ml) and +/−cholera toxin (100 μg/ml), L-glutamine and antibiotics. Cells so obtained were filtered through nylon mesh ([…]), centrifuged at 750 RPM, re-suspended in GM and counted.
Resultant cells from the above isolation procedure were plated on the 3T3 feeder layers at 2×10^5/9.5 cm^2 in growth medium and maintained at 37° C. and 5% CO2 for 3 days (Phase I). Following the initial growth period they were transferred to a transition medium (TM) that consisted of DMEM/F12 media supplemented with 1 mM sodium pyruvate, insulin ([…]), transferrin ([…]) and selenium (5.5 μg/ml) (ITS), 2% heat inactivated FBS and 2% heat inactivated human serum as well as +/−cholera toxin (ch.t.) (100 μg/ml), L-glutamine and antibiotics (Phase II). Three days later the cells were changed to differentiation medium (DM), DMEM/F12 supplemented with ITS, 3,3′,5-triido-L-thyronine sodium (3 nM), 1%(v/v) trace element mix and the choice of differentiation agent i.e. bovine pituitary extract (10 μg/ml). This medium was changed every 3 days (Phase III).
Hormones, mixture of hormones i.e. bovine pituitary extract or compounds to be tested were added to the culture at the beginning of phase III. Two criteria were used to evaluate the effect of these materials on sebaceous cultures: 1) visual observations and 2) evaluation of sebaceous lipid accumulation and synthesis. The evaluation of lipid accumulation completed using the Nile red method. This method relies on visualization of neutral lipids by Nile red and quantitation by reading of fluorescence at 535 nm excitation, 580 nm emission using a plate reader. The lipid synthesis was evaluated by radioactive labeling using ^14C acetate and quantified by Bio Rad Phosphoimager (Molecular Imager, FX) using 4.1 Software.
Quantitation of accumulation/inhibition of neutral lipids in sebocytes was accomplished by Nile red binding assay. Briefly, following exposure of sebocytes to test compounds, the cells were allowed to interact with 1 μM Nile red in Hanks buffered saline solution containing DMSO and Pluronic F127. After 4 hours of incubation, washing and incubation overnight, the fluorescence was read at 535 excitation and 580 emission using a fluorescence plate reader.
Following the procedure described above, select compounds of the present invention were tested for visual and Nile red evaluation of lipid accumulation, with results as listed in Table 9.
Following the procedure described above, select compounds of the present invention were tested for their inhibitory effect on differentiation of human sebocytes. […]

MC5-R = MC5-R (Homo sapiens, UniProt P33032); assay: MC5-R binding
Sequence of MC5-R (P33032 whole entry): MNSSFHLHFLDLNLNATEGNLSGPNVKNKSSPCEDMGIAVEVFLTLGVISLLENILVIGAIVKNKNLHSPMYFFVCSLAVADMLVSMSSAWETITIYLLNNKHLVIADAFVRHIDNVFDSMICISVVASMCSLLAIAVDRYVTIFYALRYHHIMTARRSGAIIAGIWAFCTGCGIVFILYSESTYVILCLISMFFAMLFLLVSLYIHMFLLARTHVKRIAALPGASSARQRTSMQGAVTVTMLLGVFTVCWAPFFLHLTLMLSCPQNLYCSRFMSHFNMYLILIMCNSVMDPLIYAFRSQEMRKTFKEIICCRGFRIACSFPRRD

T1 sequence (P32245 whole entry): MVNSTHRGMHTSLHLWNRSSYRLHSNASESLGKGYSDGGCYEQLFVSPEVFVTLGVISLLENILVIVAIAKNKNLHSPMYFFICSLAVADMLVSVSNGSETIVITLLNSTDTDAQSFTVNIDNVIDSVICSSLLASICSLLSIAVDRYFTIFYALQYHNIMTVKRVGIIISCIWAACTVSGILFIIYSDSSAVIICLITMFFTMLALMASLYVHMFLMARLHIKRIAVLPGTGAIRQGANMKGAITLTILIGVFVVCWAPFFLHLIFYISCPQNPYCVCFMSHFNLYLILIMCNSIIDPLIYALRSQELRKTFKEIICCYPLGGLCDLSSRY

COc1ccc(Nc2nc(-c3ccccc3)[n+](-c3ccc(C)cc3)s2)cc1 [Compound 1]
change in vivo at 10 mg/kg (Food-Deprived Rats; ip, 2 h, ip, read-out: Change in Food Intake 0–2 hrs (%)): -11.6% | change in vivo at 10 mg/kg (Food-Deprived Rats; ip, 6 h, ip, read-out: Change in Food Intake 2–6 hrs (%)): -37% | change in vivo at 30 mg/kg (Food-Deprived Rats; 2 h, read-out: Change in Food Intake 0–2 hrs (%)): -21.2% | change in vivo at 30 mg/kg (Food-Deprived Rats; 6 h, read-out: Change in Food Intake 2–6 hrs (%)): -6.7% | Food Intake 2–6 hrs (Food-Deprived Rats; fasted rats, 10μ, ip): 8.43 g | Food Intake 0–2 hrs (Food-Deprived Rats; fasted rats, ip): 7.29 g | activation at 0.05 µM (Hippocampal Cells): 6% | IC50 [1]: 174 nM | IC50 [2]: 1.1 µM

COc1ccc(Nc2nc(-c3ccccc3)[n+](-c3ccc(Cl)cc3)s2)cc1 [Compound 16]
activation at 0.05 µM (Hippocampal Cells): 8% | IC50 [1]: 424 nM | activation at 0.05 µM (Cortical Cells): 18% | IC50 [2]: 4.3 µM

COc1ccccc1Nc1nc(-c2ccccc2)[n+](-c2ccc(Cl)cc2)s1 [Compound 17]
activation at 0.05 µM (Hippocampal Cells): 8% | IC50 [1]: 351 nM | activation at 0.05 µM (Cortical Cells): 17% | IC50 [2]: 7.7 µM

Cc1ccc(Nc2nc(-c3ccccc3)[n+](-c3ccc(Cl)cc3)s2)cc1 [Compound 18]
activation at 0.05 µM (Hippocampal Cells): 17% | IC50 [1]: 463 nM | activation at 0.05 µM (Cortical Cells): 17% | IC50 [2]: 6 µM

Clc1ccc(-[n+]2sc(Nc3ccccc3Cl)nc2-c2ccccc2)cc1 [Compound 21]
activation at 0.05 µM (Hippocampal Cells): 27% | IC50 [1]: 392 nM | activation at 0.05 µM (Cortical Cells): 2% | IC50 [2]: 7.8 µM

COc1ccccc1Nc1nc(-c2ccc(C)cc2)[n+](-c2ccccc2OC)s1 [Compound 67]
IC50 [1]: 130 nM | Visual* 0.4 μM (inhibition of lipid granule formation) (human sebocytes; 0.4 μM): ++ (++ =50%) | Visual* 0.8 μM (inhibition of lipid granule formation) (human sebocytes; 0.8 μM): +++ (+++ = 75%) | IC50 (MC5-R): 246 nM

Cc1ccc(-n2s/c(=N/c3ccccc3)nc2-c2ccccc2)cc1 [Compound 82]
activation at 0.05 µM (Hippocampal Cells): 14% | IC50 [1]: 826 nM | activation at 0.05 µM (Cortical Cells): 15% | IC50 [2]: 1.5 µM

COc1ccc(/N=c2\nc(-c3ccccc3)n(-c3ccc(C)cc3)s2)cc1 [Compound 83]
activation at 0.05 µM (Hippocampal Cells): 11% | IC50 [1]: 833 nM | activation at 0.05 µM (Cortical Cells): 9% | IC50 [2]: 1.9 µM
